# Active and inactive are the calls of the source. The rule behind the calls is not given here.
# Test system: Acinetobacter baumannii
# Test: Ratio of MBC to MIC for Acinetobacter baumannii ATCC BAA 1747 clinical isolates
# Type: functional
# Details: not given
row,SMILES,Ratio
1,CCCC#Cc1ccc(-n2ncc(/C(C)=N/NC(=N)N)c2C)cc1,>=1

# Test system: not listed separately
# Test: Antibacterial activity against Enterobacter cloacae subsp. cloacae ATCC BAA-1143 clinical isolates after 18 to 20 hrs in aerobic condition by CLSI-based broth microdilution assay
# Type: functional
# Details: not given
row,SMILES,MIC [µg/mL]
1,CCCC#Cc1ccc(-n2ncc(/C(C)=N/NC(=N)N)c2C)cc1,16

# Test system: Staphylococcus aureus
# Test: Antibacterial activity against linezolid-resistant/Methicillin-resistant Staphylococcus aureus NRS119 clinical isolates after 18 to 20 hrs in aerobic condition by CLSI protocol based broth microdilution assay
# Type: functional
# Details: not given
row,SMILES,MIC [µg/mL]
1,CCCC#Cc1ccc(-n2ncc(/C(C)=N/NC(=N)N)c2C)cc1,2

# Test system: Staphylococcus aureus
# Test: Antibacterial activity against vancomycin-resistant Staphylococcus aureus isolate 12 after 18 to 20 hrs in aerobic condition by CLSI-based broth microdilution assay
# Type: functional
# Details: not given
row,SMILES,MIC [µg/mL]
1,CCCC#Cc1ccc(-n2ncc(/C(C)=N/NC(=N)N)c2C)cc1,2

# Test system: Staphylococcus aureus
# Test: Ratio of MBC to MIC for Methicillin-sensitive Staphylococcus aureus ATCC 6538 clinical isolates
# Type: functional
# Details: not given
row,SMILES,Ratio
1,CCCC#Cc1ccc(-n2ncc(/C(C)=N/NC(=N)N)c2C)cc1,<=2

# Test system: Pseudomonas aeruginosa
# Test: Ratio of MBC to MIC for Pseudomonas aeruginosa ATCC 15442 clinical isolates
# Type: functional
# Details: not given
row,SMILES,Ratio
1,CCCC#Cc1ccc(-n2ncc(/C(C)=N/NC(=N)N)c2C)cc1,>=1

# Test system: Enterococcus faecium
# Test: Antibacterial activity against vancomycin-resistant Enterococcus faecium ATCC 700221 clinical isolates after 18 to 20 hrs in aerobic condition by CLSI-based broth microdilution assay
# Type: functional
# Details: not given
row,SMILES,MIC [µg/mL]
1,CCCC#Cc1ccc(-n2ncc(/C(C)=N/NC(=N)N)c2C)cc1,4

# Test system: Klebsiella pneumoniae
# Test: Ratio of MBC to MIC for Klebsiella pneumoniae BAA-1144 clinical isolates
# Type: functional
# Details: not given
row,SMILES,Ratio
1,CCCC#Cc1ccc(-n2ncc(/C(C)=N/NC(=N)N)c2C)cc1,>=1

# Test system: Escherichia coli
# Test: Antibacterial activity against carbapenem-resistant Escherichia coli BAA-2452 clinical isolates after 18 to 20 hrs in aerobic condition by CLSI-based broth microdilution assay
# Type: functional
# Details: not given
row,SMILES,MIC [µg/mL]
1,CCCC#Cc1ccc(-n2ncc(/C(C)=N/NC(=N)N)c2C)cc1,32

# Test system: Shigella flexneri
# Test: Ratio of MBC to MIC for Shigella flexneri ATCC 9199 clinical isolates
# Type: functional
# Details: not given
row,SMILES,Ratio
1,CCCC#Cc1ccc(-n2ncc(/C(C)=N/NC(=N)N)c2C)cc1,>=1

# Test system: Staphylococcus aureus
# Test: Antibacterial activity against Methicillin-resistant Staphylococcus aureus USA700-NRS386 clinical isolates after 18 to 20 hrs in aerobic condition by CLSI protocol based broth microdilution assay
# Type: functional
# Details: not given
row,SMILES,MIC [µg/mL]
1,CCCC#Cc1ccc(-n2ncc(/C(C)=N/NC(=N)N)c2C)cc1,4

# Test system: Staphylococcus aureus
# Test: Antibacterial activity against Methicillin-sensitive Staphylococcus aureus ATCC 6538 clinical isolates after 18 to 20 hrs in aerobic condition by CLSI protocol based broth microdilution assay
# Type: functional
# Details: not given
row,SMILES,MIC [µg/mL]
1,CCCC#Cc1ccc(-n2ncc(/C(C)=N/NC(=N)N)c2C)cc1,2

# Test system: Acinetobacter baumannii
# Test: Antibacterial activity against Acinetobacter baumannii ATCC BAA 1141 clinical isolates after 18 to 20 hrs in aerobic condition by CLSI-based broth microdilution assay
# Type: functional
# Details: not given
row,SMILES,MIC [µg/mL]
1,CCCC#Cc1ccc(-n2ncc(/C(C)=N/NC(=N)N)c2C)cc1,8

# Test system: Salmonella enterica
# Test: Ratio of MBC to MIC for Salmonella enterica NR-170 clinical isolates
# Type: functional
# Details: not given
row,SMILES,Ratio
1,CCCC#Cc1ccc(-n2ncc(/C(C)=N/NC(=N)N)c2C)cc1,>=1

# Test system: Salmonella enteritidis
# Test: Antibacterial activity against Salmonella enteritidis ATCC 14028 clinical isolates after 18 to 20 hrs in aerobic condition by CLSI-based broth microdilution assay
# Type: functional, Salmonella enterica subsp. enterica serovar Enteritidis
# Details: Salmonella enterica
row,SMILES,MIC [µg/mL]
1,CCCC#Cc1ccc(-n2ncc(/C(C)=N/NC(=N)N)c2C)cc1,16

# Test system: Acinetobacter baumannii
# Test: Antibacterial activity against Acinetobacter baumannii ATCC 19606 clinical isolates after 18 to 20 hrs in aerobic condition by CLSI-based broth microdilution assay
# Type: functional
# Details: ATCC 19606 = CIP 70.34 = JCM 6841
row,SMILES,MIC [µg/mL]
1,CCCC#Cc1ccc(-n2ncc(/C(C)=N/NC(=N)N)c2C)cc1,8

# Test system: Acinetobacter baumannii
# Test: Ratio of MBC to MIC for Acinetobacter baumannii NR 17786 clinical isolates
# Type: functional
# Details: not given
row,SMILES,Ratio
1,CCCC#Cc1ccc(-n2ncc(/C(C)=N/NC(=N)N)c2C)cc1,>=1

# Test system: Klebsiella pneumoniae
# Test: Ratio of MBC to MIC for Klebsiella pneumoniae BAA-1706 after 18 to 20 hrs in aerobic condition by CLSI-based broth microdilution assay
# Type: functional
# Details: not given
row,SMILES,Ratio
1,CCCC#Cc1ccc(-n2ncc(/C(C)=N/NC(=N)N)c2C)cc1,>=1

# Test system: Klebsiella pneumoniae
# Test: Antibacterial activity against Klebsiella pneumoniae BAA-1144 clinical isolates after 18 to 20 hrs in aerobic condition by CLSI-based broth microdilution assay
# Type: functional
# Details: not given
row,SMILES,MIC [µg/mL]
1,CCCC#Cc1ccc(-n2ncc(/C(C)=N/NC(=N)N)c2C)cc1,16

# Test system: Listeria monocytogenes
# Test: Antibacterial activity against Listeria monocytogenes ATCC 19111 after 18 to 20 hrs in aerobic condition by CLSI-based broth microdilution assay
# Type: functional
# Details: not given
row,SMILES,MIC [µg/mL]
1,CCCC#Cc1ccc(-n2ncc(/C(C)=N/NC(=N)N)c2C)cc1,4

# Test system: Pseudomonas aeruginosa
# Test: Ratio of MBC to MIC for Pseudomonas aeruginosa ATCC 25619 clinical isolates
# Type: functional
# Details: not given
row,SMILES,Ratio
1,CCCC#Cc1ccc(-n2ncc(/C(C)=N/NC(=N)N)c2C)cc1,>=1

# Test system: Staphylococcus aureus
# Test: Ratio of MBC to MIC for Methicillin-sensitive Staphylococcus aureus NRS107 clinical isolates
# Type: functional
# Details: not given
row,SMILES,Ratio
1,CCCC#Cc1ccc(-n2ncc(/C(C)=N/NC(=N)N)c2C)cc1,<=2

# Test system: Acinetobacter baumannii
# Test: Antibacterial activity against carbapenem-resistant Acinetobacter baumannii ATCC BAA 1605 clinical isolates after 18 to 20 hrs in aerobic condition by CLSI-based broth microdilution assay
# Type: functional
# Details: not given
row,SMILES,MIC [µg/mL]
1,CCCC#Cc1ccc(-n2ncc(/C(C)=N/NC(=N)N)c2C)cc1,16

# Test system: Shigella flexneri
# Test: Antibacterial activity against Shigella flexneri ATCC 9199 clinical isolates after 18 to 20 hrs in aerobic condition by CLSI-based broth microdilution assay
# Type: functional
# Details: not given
row,SMILES,MIC [µg/mL]
1,CCCC#Cc1ccc(-n2ncc(/C(C)=N/NC(=N)N)c2C)cc1,16

# Test system: Salmonella typhimurium
# Test: Antibacterial activity against Salmonella typhimurium ATCC 700720 after 18 to 20 hrs in aerobic condition by CLSI-based broth microdilution assay
# Type: functional, Salmonella enterica subsp. enterica serovar Typhimurium
# Details: Salmonella enterica
row,SMILES,MIC [µg/mL]
1,CCCC#Cc1ccc(-n2ncc(/C(C)=N/NC(=N)N)c2C)cc1,16

# Test system: Salmonella enteritidis
# Test: Antibacterial activity against Salmonella enteritidis ATCC 13076 clinical isolates after 18 to 20 hrs in aerobic condition by CLSI-based broth microdilution assay
# Type: functional, Salmonella enterica subsp. enterica serovar Enteritidis
# Details: Salmonella enterica
row,SMILES,MIC [µg/mL]
1,CCCC#Cc1ccc(-n2ncc(/C(C)=N/NC(=N)N)c2C)cc1,16

# Test system: Staphylococcus aureus
# Test: Antibacterial activity against Methicillin-resistant Staphylococcus aureus NRS385-USA500 clinical isolates after 18 to 20 hrs in aerobic condition by CLSI protocol based broth microdilution assay
# Type: functional
# Details: not given
row,SMILES,MIC [µg/mL]
1,CCCC#Cc1ccc(-n2ncc(/C(C)=N/NC(=N)N)c2C)cc1,2

# Test system: Staphylococcus aureus
# Test: Antibacterial activity against vancomycin-resistant Staphylococcus aureus isolate 10 after 18 to 20 hrs in aerobic condition by CLSI-based broth microdilution assay
# Type: functional
# Details: not given
row,SMILES,MIC [µg/mL]
1,CCCC#Cc1ccc(-n2ncc(/C(C)=N/NC(=N)N)c2C)cc1,2

# Test system: Salmonella enteritidis
# Test: Ratio of MBC to MIC for Salmonella enteritidis ATCC 13076 clinical isolates
# Type: functional, Salmonella enterica subsp. enterica serovar Enteritidis
# Details: not given
row,SMILES,Ratio
1,CCCC#Cc1ccc(-n2ncc(/C(C)=N/NC(=N)N)c2C)cc1,>=1

# Test system: Enterobacter cloacae subsp. cloacae
# Test: Ratio of MBC to MIC for Enterobacter cloacae subsp. cloacae ATCC BAA-1143 clinical isolates
# Type: functional
# Details: not given
row,SMILES,Ratio
1,CCCC#Cc1ccc(-n2ncc(/C(C)=N/NC(=N)N)c2C)cc1,> 1

# Test system: Escherichia coli
# Test: Antibacterial activity against Escherichia coli BW25113 clinical isolates after 18 to 20 hrs in aerobic condition by CLSI-based broth microdilution assay
# Type: functional
# Details: not given
row,SMILES,MIC [µg/mL]
1,CCCC#Cc1ccc(-n2ncc(/C(C)=N/NC(=N)N)c2C)cc1,8

# Test system: Acinetobacter baumannii
# Test: Ratio of MBC to MIC for Acinetobacter baumannii NR 17785 clinical isolates
# Type: functional
# Details: not given
row,SMILES,Ratio
1,CCCC#Cc1ccc(-n2ncc(/C(C)=N/NC(=N)N)c2C)cc1,>=1

# Test system: Streptococcus pneumoniae
# Test: Ratio of MBC to MIC for cephalosporin-resistant Streptococcus pneumoniae ATCC 51916 clinical isolates
# Type: functional
# Details: not given
row,SMILES,Ratio
1,CCCC#Cc1ccc(-n2ncc(/C(C)=N/NC(=N)N)c2C)cc1,<3

# Test system: Escherichia coli
# Test: Inhibition of 6His tagged Escherichia coli UPPP expressed in Escherichia coli C41(DE3) cells preincubated for 15 mins followed by FPP substrate addition and measured after 20 mins by malachite green reagent based assay
# Details: not given
row,SMILES,inhibition
1,CCCC#Cc1ccc(-n2ncc(/C(C)=N/NC(=N)N)c2C)cc1,inactive

# Test system: Escherichia coli
# Test: Antibacterial activity against Escherichia coli ATCC 35150 clinical isolates after 18 to 20 hrs in aerobic condition by CLSI-based broth microdilution assay
# Type: functional
# Details: not given
row,SMILES,MIC [µg/mL]
1,CCCC#Cc1ccc(-n2ncc(/C(C)=N/NC(=N)N)c2C)cc1,8

# Test system: Acinetobacter baumannii
# Test: Antibacterial activity against Acinetobacter baumannii NR 17785 clinical isolates after 18 to 20 hrs in aerobic condition by CLSI-based broth microdilution assay
# Type: functional
# Details: not given
row,SMILES,MIC [µg/mL]
1,CCCC#Cc1ccc(-n2ncc(/C(C)=N/NC(=N)N)c2C)cc1,8

# Test system: Staphylococcus epidermidis
# Test: Antibacterial activity against Staphylococcus epidermidis NRS101 after 18 to 20 hrs in aerobic condition by CLSI-based broth microdilution assay
# Type: functional
# Details: not given
row,SMILES,MIC [µg/mL]
1,CCCC#Cc1ccc(-n2ncc(/C(C)=N/NC(=N)N)c2C)cc1,4

# Test system: Escherichia coli
# Test: Antibacterial activity against carbapenem-resistant Escherichia coli BAA-2469 clinical isolates after 18 to 20 hrs in aerobic condition by CLSI-based broth microdilution assay
# Type: functional
# Details: not given
row,SMILES,MIC [µg/mL]
1,CCCC#Cc1ccc(-n2ncc(/C(C)=N/NC(=N)N)c2C)cc1,32

# Test system: Escherichia coli
# Test: Ratio of MBC to MIC for Escherichia coli ATCC 25922 clinical isolates
# Type: functional
# Details: not given
row,SMILES,Ratio
1,CCCC#Cc1ccc(-n2ncc(/C(C)=N/NC(=N)N)c2C)cc1,>=1

# Test system: Pseudomonas aeruginosa
# Test: microbe, parasite or virus in culture
# Details: ATCC 9027
# Description: Antibacterial activity against Pseudomonas aeruginosa ATCC 9027 clinical isolates after 18 to 20 hrs in aerobic condition by CLSI-based broth microdilution assay
row,SMILES,MIC [µg/mL]
1,CCCC#Cc1ccc(-n2ncc(/C(C)=N/NC(=N)N)c2C)cc1,32

# Test system: Escherichia coli
# Test: Ratio of MBC to MIC for Escherichia coli ATCC 35150 clinical isolates
# Type: functional
# Details: not given
row,SMILES,Ratio
1,CCCC#Cc1ccc(-n2ncc(/C(C)=N/NC(=N)N)c2C)cc1,>=1

# Test system: Acinetobacter baumannii
# Test: Ratio of MBC to MIC for Acinetobacter baumannii ATCC 19606 clinical isolates
# Type: functional, ATCC 19606 = CIP 70.34 = JCM 6841
# Details: not given
row,SMILES,Ratio
1,CCCC#Cc1ccc(-n2ncc(/C(C)=N/NC(=N)N)c2C)cc1,>=1

# Test system: Enterococcus faecalis
# Test: Antibacterial activity against vancomycin-resistant Enterococcus faecalis ATCC 51299 clinical isolates after 18 to 20 hrs in aerobic condition by CLSI-based broth microdilution assay
# Type: functional
# Details: not given
row,SMILES,MIC [µg/mL]
1,CCCC#Cc1ccc(-n2ncc(/C(C)=N/NC(=N)N)c2C)cc1,4

# Test system: Salmonella typhimurium
# Test: Ratio of MBC to MIC for Salmonella typhimurium ATCC 700720 clinical isolates
# Type: functional, Salmonella enterica subsp. enterica serovar Typhimurium
# Details: not given
row,SMILES,Ratio
1,CCCC#Cc1ccc(-n2ncc(/C(C)=N/NC(=N)N)c2C)cc1,>=1

# Reference: ChEMBL document CHEMBL4334464, “From Phenylthiazoles to Phenylpyrazoles: Broadening the Antibacterial Spectrum toward Carbapenem-Resistant Bacteria” (J Med Chem, 2019)
